1 compound from US10899776B2, “Antiviral and antibacteria agents based on quaternary ammonium compound complexed with boric acid and its derivatives” (B-Organic Films Corp, priority 2015, dated 2021) can be followed below.

Molecules are shown by their SMILES. Several values for one entry are separate records, joined by “and”; a condition that tells them apart may be missing. Equal values may be shown once. Bounds are passed on as bounds.

The subject of the experiment is Vibrio parahaemolyticus CAIM 170. The following applies: V. parahaemolyticus 1×10^6 cfu/mL, after 96 h; dose 5 mg/g of feed; untreated infected about 30%.

As to `C[N+](C)(C)CCOB1OB2OB(O1)OB1OB(O2)O1.[Cl-]` [choline/pentaborate complex], the survival was > 80% and 84%.
